Experimental data reported in US10875832B2, “Substituted pyrimidines for treating bacterial infections” (FORGE THERAPEUTICS, INC., priority 2015, dated 2020).
Values after ≈ are worked out from the molar mass of the structure shown.

What was measured:
Format in all cases: cell-based
[1] = test system: E. coli delta to IC mutant; assay: MIC by broth microdilution, E. coli delta tolC mutant; details: Escherichia coli, read-out: MIC E. coli delta to IC mutant
Experimental: (§1) Minimal inhibitory concentrations (MIC) were determined by the broth microdilution method in accordance with the Clinical and Laboratory Standards Institute (CLSI) guidelines. In brief, organism suspensions were adjusted to a 0.5 McFarland standard to yield a final inoculum between 3×10^5 and 7×10^5 colony-forming units (CFU)/mL. Drug dilutions and inocula were made in sterile, cation adjusted Mueller-Hinton Broth (Beckton Dickinson). An inoculum volume of 100 μL was added to wells containing 100 μL of broth with 2-fold serial dilutions of drug. All inoculated microdilution trays were incubated in ambient air at 35° C. for 18-24 h. […] Performance of the assay was monitored by the use of laboratory quality-control strains and levofloxacin, a compound with a defined MIC spectrum, in accordance with CLSI guidelines.

[2] = test system: P. aeruginosa 210 delta mexAB-OprM; assay: MIC by broth microdilution, P. aeruginosa 210 delta mexAB-OprM; details: Pseudomonas aeruginosa, read-out: MIC P. aeruginosa 210 delta mexAB-OprM
Experimental: as §1

E. coli imp mutant = assay: MIC by broth microdilution, E. coli imp mutant; details: Escherichia coli, read-out: MIC E. coli imp mutant
Experimental: as §1

E. coli ATCC 25922 = assay: MIC by broth microdilution, E. coli ATCC 25922, no FBS; details: Escherichia coli, ATCC25922, 35° C., 18-24 h
Experimental: as §1

E. coli BW25113 = assay: MIC by broth microdilution, E. coli BW25113, no FBS; details: Escherichia coli, 35° C., 18-24 h
Experimental: as §1

P. aeruginosa 209 = assay: MIC by broth microdilution, P. aeruginosa 209; details: Pseudomonas aeruginosa, 35° C., 18-24 h
Experimental: as §1

S. aureus ATCC 29213 = assay: MIC by broth microdilution, S. aureus ATCC 29213; details: Staphylococcus aureus, ATCC29213; 35° C., 18-24 h
Experimental: as §1

| SMILES | MIC [1] [µg/mL] | MIC [2] [µg/mL] | MIC (E. coli imp mutant) [µg/mL] | MIC (E. coli ATCC 25922) [µg/mL] | MIC (E. coli BW25113) [µg/mL] | MIC (P. aeruginosa 209) [µg/mL] | MIC (S. aureus ATCC 29213) [µg/mL] |
| --- | --- | --- | --- | --- | --- | --- | --- |
| CS(=O)(=O)Cc1nc(COc2ccc(C#CC#Cc3ccccc3)cc2)[nH]c(=O)c1O [Compound 70, 5-hydroxy-6-((methylsulfonyl)methyl)-2-((4-(phenylbuta-1,3-diyn-1-yl)phenoxy)methyl)pyrimidin-4(3H)-one] | 8 to 32 (≈ 18.4 to 73.7 µM) | > 32 | 1 to 8 (≈ 2.3 to 18.4 µM) | > 32 | > 32 | > 32 | 8 to 32 (≈ 18.4 to 73.7 µM) |
| COC(=O)c1ccc(C#CC#Cc2ccc(NCc3nc[nH]c(=O)c3O)cc2)cc1 [Compound 71, Methyl 4-((4-(((5-hydroxy-6-oxo-1,6-dihydropyrimidin-4-yl)methyl)amino)phenyl)buta-1,3-diyn-1-yl)benzoate] | > 32 | > 32 | > 32 | > 32 | > 32 | > 32 | > 32 |
| CNC(=O)c1ccc(C#CC#Cc2ccc(NCc3nc[nH]c(=O)c3O)cc2)cc1 [Compound 72, 4-((4-(((5-hydroxy-6-oxo-1,6-dihydropyrimidin-4-yl)methyl)amino)phenyl)buta-1,3-diyn-1-yl)-N-methylbenzamide] | < 1 | > 32 | < 1 | < 1 | < 1 | > 32 | > 32 |
| O=c1c(O)cncn1CCc1ccc(C#Cc2ccc(CN3CCOCC3)cc2)cc1 [Compound 73, 5-hydroxy-3-(4-((4-(morpholinomethyl)phenyl)ethynyl)phenethyl)-pyrimidin-4(3H)-one] |  | > 32 |  |  | 1 to 8 (≈ 2.41 to 19.3 µM) | > 32 | > 32 |
| CN(C)C1CCN(C(=O)c2ccc(C#CC#Cc3ccc(NCc4nc[nH]c(=O)c4O)cc3)cc2)CC1 [Compound 74] | < 1 | > 32 | 1 to 8 (≈ 2.02 to 16.1 µM) | 8 to 32 (≈ 16.1 to 64.6 µM) | 1 to 8 (≈ 2.02 to 16.1 µM) | > 32 | > 32 |
| O=C(NCCN1CCCC1)c1ccc(C#CC#Cc2ccc(NCc3nc[nH]c(=O)c3O)cc2)cc1 [Compound 75] | < 1 | > 32 | 1 to 8 (≈ 2.08 to 16.6 µM) | 8 to 32 (≈ 16.6 to 66.5 µM) | 1 to 8 (≈ 2.08 to 16.6 µM) | > 32 | > 32 |
| CCN(CC)CCCNC(=O)c1ccc(C#CC#Cc2ccc(NCc3nc[nH]c(=O)c3O)cc2)cc1 [Compound 76] | < 1 | > 32 | 1 to 8 (≈ 2.01 to 16.1 µM) | 8 to 32 (≈ 16.1 to 64.3 µM) | 1 to 8 (≈ 2.01 to 16.1 µM) | > 32 | > 32 |
| O=C(c1ccc(C#CC#Cc2ccc(NCc3nc[nH]c(=O)c3O)cc2)cc1)N1CCC(N2CCOCC2)CC1 [Compound 78] | < 1 | > 32 | < 1 | > 32 | 1 to 8 (≈ 1.86 to 14.9 µM) | > 32 | > 32 |
| Cc1nc(C(=O)O)c(O)c(=O)n1CC(=O)c1ccc(-c2ccccc2)cc1 [Compound 82, 1-(2-([1,1′-biphenyl]-4-yl)-2-oxoethyl)-5-hydroxy-2-methyl-6-oxo-1,6-dihydro pyrimidine-4-carboxylic acid] | 8 to 32 (≈ 22 to 87.8 µM) | > 32 | 1 to 8 (≈ 2.74 to 22 µM) | > 32 | > 32 | > 32 | > 32 |
| Cc1nc(C(=O)O)c(O)c(=O)n1CC(O)c1ccc(-c2ccccc2)cc1 (stereo not drawn) [Compound 83, 1-(2-([1,1′-biphenyl]-4-yl)-2-hydroxyethyl)-5-hydroxy-2-methyl-6-oxo-1,6-dihydro pyrimidine-4-carboxylic acid] | 8 to 32 (≈ 21.8 to 87.3 µM) | > 32 | 1 to 8 (≈ 2.73 to 21.8 µM) | > 32 | > 32 | > 32 | > 32 |
| CCOC(=O)c1nc(C)n(CC(=O)c2ccc(-c3ccccc3)cc2)c(=O)c1O [Compound 84, ethyl 1-(2-([1,1′-biphenyl]-4-yl)-2-oxoethyl)-5-hydroxy-2-methyl-6-oxo-1,6-dihydropyrimidine-4-carboxylate] | > 32 | > 32 | > 32 | > 32 | > 32 | > 32 | > 32 |
| O=C(c1ccc(C#CC#Cc2ccc(NCc3nc[nH]c(=O)c3O)cc2)cc1)N1CC(O)C1 [Compound 86] | < 1 | > 32 | < 1 | < 1 | < 1 | > 32 | > 32 |
| O=C(O)c1ccc(C#CC#Cc2ccc(NCc3nc[nH]c(=O)c3O)cc2)cc1 [Compound 87] | < 1 | > 32 | 1 to 8 (≈ 2.59 to 20.8 µM) | 1 to 8 (≈ 2.59 to 20.8 µM) | 1 to 8 (≈ 2.59 to 20.8 µM) | > 32 | > 32 |
| O=C(NCCO)c1ccc(C#CC#Cc2ccc(NCc3nc[nH]c(=O)c3O)cc2)cc1 [Compound 88] | < 1 | > 32 | < 1 | < 1 | < 1 | > 32 | > 32 |
| CCOC(=O)c1nc(C)n(CC(O)c2ccc(C#Cc3ccccc3)cc2)c(=O)c1O (stereo not drawn) [Compound 89] | > 32 | > 32 | 8 to 32 (≈ 19.1 to 76.5 µM) | > 32 | > 32 | > 32 | 8 to 32 (≈ 19.1 to 76.5 µM) |
| Cc1nc(C(=O)O)c(O)c(=O)n1CC(O)c1ccc(C#Cc2ccccc2)cc1 (stereo not drawn) [Compound 90] | 8 to 32 (≈ 20.5 to 82 µM) | > 32 | 1 to 8 (≈ 2.56 to 20.5 µM) | > 32 | > 32 | > 32 | > 32 |
| CNC(=O)c1nc(C)n(CC(O)c2ccc(-c3ccccc3)cc2)c(=O)c1O (stereo not drawn) [Compound 91, 1-(2-([1,1′-biphenyl]-4-yl)-2-hydroxyethyl)-5-hydroxy-N,2-dimethyl-6-oxo-1,6-dihydropyrimidine-4-carboxamide] | 8 to 32 (≈ 21.1 to 84.3 µM) | > 32 | > 32 | > 32 | > 32 | > 32 | 8 to 32 (≈ 21.1 to 84.3 µM) |
| Cc1nc(CO)c(O)c(=O)n1CC(O)c1ccc(-c2ccccc2)cc1 (stereo not drawn) [Compound 92] |  |  |  | > 32 |  | > 32 | > 32 |
| Cc1nc(C(=O)O)c(O)c(=O)n1CC(O)c1ccc(C#Cc2ccc(CN3CCOCC3)cc2)cc1 (stereo not drawn) [Compound 93] | > 32 | > 32 | > 32 | > 32 | > 32 | > 32 | > 32 |
| Cn1cc(O)c(=O)cc1CNC(=O)c1ccc(C#Cc2ccccc2)cc1 [Compound 94] | > 32 | > 32 | > 32 | > 32 | > 32 | > 32 | > 32 |
| Cc1nc(C(=O)O)c(O)c(=O)n1C/C(=N/O)c1ccc(-c2ccccc2)cc1 [Compound 95, (E)-1-(2-([1,1′-biphenyl]-4-yl)-2-(hydroxyimino)ethyl)-5-hydroxy-2-methyl-6-oxo-1,6-dihydropyrimidine-4-carboxylic acid] | > 32 | > 32 | 8 to 32 (≈ 21.1 to 84.3 µM) | > 32 | > 32 | > 32 | > 32 |
| O=c1[nH]cnc(CNc2ccc(-c3ccccc3)cc2)c1O [Compound 96] | > 32 | > 32 | > 32 | > 32 | > 32 | > 32 | > 32 |
| O=c1[nH]cnc(CCc2ccc(C#Cc3ccc(CN4CCOCC4)cc3)cc2)c1O [Compound 104, 5-hydroxy-6-(4-((4-(morpholinomethyl)phenyl)ethynyl)phenethyl)pyrimidin-4(3H)-one] | 1 to 8 (≈ 2.41 to 19.3 µM) |  | 8 to 32 (≈ 19.3 to 77 µM) | 8 to 32 (≈ 19.3 to 77 µM) |  |  |  |
| O=c1c(O)cncn1CCc1ccc(C#Cc2ccc(CN3CCOCC3)cc2)cc1 [Compound 105, 5-hydroxy-3-(4-((4-(morpholinomethyl)phenyl)ethynyl)phenethyl)pyrimidin-4(3H)-one] | 1 to 8 (≈ 2.41 to 19.3 µM) |  | 1 to 8 (≈ 2.41 to 19.3 µM) | 8 to 32 (≈ 19.3 to 77 µM) |  |  |  |
| N#CC(Cc1ccc(C#Cc2ccc(CN3CCOCC3)cc2)cc1)n1cncc(O)c1=O (stereo not drawn) [Compound 106] | < 1 |  | 8 to 32 (≈ 18.2 to 72.6 µM) | > 32 |  |  |  |
| CC(=O)C(Cc1ccc(C#Cc2ccc(CN3CCOCC3)cc2)cc1)n1cncc(O)c1=O (stereo not drawn) [Compound 107] | 8 to 32 (≈ 17.5 to 69.9 µM) |  | > 32 | > 32 |  |  |  |
| CC(O)C(Cc1ccc(C#Cc2ccc(CN3CCOCC3)cc2)cc1)n1cncc(O)c1=O (stereo not drawn) [Compound 108] | 8 to 32 (≈ 17.4 to 69.6 µM) |  | 8 to 32 (≈ 17.4 to 69.6 µM) | > 32 |  |  |  |
| CC(C)(O)C(Cc1ccc(C#Cc2ccc(CN3CCOCC3)cc2)cc1)c1nc[nH]c(=O)c1O (stereo not drawn) [Compound 112] | < 1 |  | 1 to 8 (≈ 2.11 to 16.9 µM) | 8 to 32 (≈ 16.9 to 67.6 µM) |  |  |  |
| O=c1[nH]cnc(CN(CCO)c2ccc(C#Cc3ccc(CN4CCOCC4)cc3)cc2)c1O [Compound 113] | > 32 |  | > 32 | > 32 |  |  |  |
| O=c1c(O)cccn1C(CO)Cc1ccc(C#Cc2ccc(CN3CCOCC3)cc2)cc1 (stereo not drawn) [Compound 114, 3-hydroxy-1-(1-hydroxy-3-(4-((4-(morpholinomethyl)phenyl)ethynyl)phenyl)propan-2-yl)pyridin-2(1H)-one] | 1 to 8 (≈ 2.25 to 18 µM) |  | 1 to 8 (≈ 2.25 to 18 µM) | 8 to 32 (≈ 18 to 72 µM) |  |  |  |
